# Experimental data from PubChem BioAssay AID2060491 (Molecular Pharmacology Branch, DTP, NCI, 2025).
# Tested on: 857933-349-R-J2-PDC complex spheroids, viability
# Assay: Anticancer human tumor 857933-349-R-J2-PDC patient-derived colon adenocarcinoma cell line growth inhibition [GQUAD]
# Conditions: for IC50: curve of first compound; for viability, T/C: stronger effect = lower value
# Source text: DNA G-quadruplex Stabilizer Agents in Combinations in Complex Spheroids
# A high-throughput screen of multi-cell type tumor spheroids was designed to identify active combinations of DNA G-quadruplex stabilizer agents and targeted small molecules. Complex spheroids include a stromal component modeled by human endothelial cells (HUVEC) and fibroblasts modeled by human mesenchymal stem cells (MSCs). The concentration ranges selected for each drug and investigational agent were based upon clinically achievable concentrations if the clinical Cmax of the agent was known.
# Compounds. The drugs and investigational agents: pidnarulex (CX-5461; NSC782164), APTO-253 (NSC789042), BRACO-19 (NSC847499), peposertib (NSC802822), ceralasertib (NSC780249), elimusertib (NSC800525), camonsertib (NSC841442), AZD-1390 (NSC803789), olaparib (NSC753686), talazoparib (NSC767125), ART-558 (NSC835418), sotorasib (NSC818433), MRTX-1133 (NSC836407), SN-38 (NSC673596), topotecan (NSC609699), etoposide (NSC141540), doxorubicin (NSC123127), gemcitabine (NSC613327), 5-fluorouracil (NSC19893), paclitaxel (NSC125973), vemurafenib (NSC761431), panobinostat (NSC761190), R-306465 (JNJ-16241199; NSC773264), adavosertib (NSC754352), TP-3654 (NSC805149), carboplatin (NSC241240), KSQ-4279 (NSC840948), and staurosporine (NSC755774) were obtained from the National Cancer Institute (NCI) Developmental Therapeutics Program Chemical Repository (34). The FDA-approved anticancer drug set is available from the NCI Developmental Therapeutics Program. […] The stock solutions were prepared in dimethyl sulfoxide (DMSO, Sigma-Aldrich, St. Louis, MO, cat. D2650) at 800-fold the tested concentration and stored at -70 degrees C prior to their use. All drugs and investigational agents were tested over a range starting from a high concentration at or near the clinical Cmax and decreasing in half-log increments. If the clinical Cmax for an agent had not been determined, the highest concentration tested was 10 microM.
# 2.3 Cell Culture. All cells were maintained in an incubator at 37 degrees C and 5% CO2 with 95% humidity. The PDC lines were cultured according to standard operating procedures established by the NCI PDMR. All PDCs were thawed and cultured in Matrigel-coated flasks prepared with a working solution of 1X Ham's F-12 nutrient mix, without supplementation (Invitrogen, cat. 11765054), 100 U/mL penicillin-streptomycin (Invitrogen, cat. 15140122), and 2.5% Matrigel (Corning Inc., cat. 354248) for the first three passages. The 857933-349-R-J2-PDC line was cultured in 6C/Colon 1B media, which includes advanced DMEM/F-12 (Thermo Fisher Scientific, cat. 12634028), 10 mM HEPES (Thermo Fisher Scientific, cat. 15630080), 1X GlutaMAX supplement (Thermo Fisher Scientific, cat. 35050061), 0.1 mg/mL primocin (InvivoGen, cat. ant-pm-2), 10% defined fetal bovine serum, heat inactivated (HyClone Laboratories Inc., cat. SH30070.03HI), 50% L-WRN conditioned media (ATCC, cat. CRL-3276), 1.25 mM N-Acetyl-L-cysteine (Sigma-Aldrich, cat. A9165), 10 mM nicotinamide (Sigma-Aldrich, cat. N0636), 1X B-27 supplement (Thermo Fisher Scientific, cat. 17504044), 1X N-2 supplement (Thermo Fisher Scientific, cat. 17502048), 10 microM Y-27632 dihydrochloride (Tocris Bioscience, cat. 1254), and 50 ng/mL human EGF recombinant protein (Thermo Fisher Scientific, cat. PHG0311). The 485176-168-R4-J1-PDC line was cultured in Panc media, which includes all 6C/Colon 1B media components plus 100 ng/mL human FGF-10 (Thermo Fisher Scientific, cat. 100-26), 500 nM SB-431542 (Selleckchem, cat. S1067), and gastrin (Tocris, cat. 3006).
# […]
# [1] = second compound 0.0316 µM, first compound 0.0316 µM
# [2] = second compound 0.0316 µM, first compound 0.316 µM
# [3] = second compound 0.1 µM, first compound 0.0316 µM
# [4] = second compound 0.1 µM, first compound 0.316 µM
# [5] = second compound 0.316 µM, first compound 0.0316 µM
# [6] = second compound 0.316 µM, first compound 0.316 µM
# [7] = second compound 1 µM, first compound 0.0316 µM
# [8] = second compound 1 µM, first compound 0.316 µM
# [9] = second compound 3.16 µM, first compound 0.0316 µM
# [10] = second compound 3.16 µM, first compound 0.316 µM
# [11] = second compound 10 µM, first compound 0.0316 µM
# [12] = second compound 10 µM, first compound 0.316 µM
# 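Note: spheroids exposed to compounds for one week before readout.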
# 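Throughout, for viability, T/C: percent viability relative to vehicle DMSO wells taken as 100%.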
smiles,measurement,setting,value
CC[C@@]1(O)C(=O)OCc2c1cc1n(c2=O)Cc2cc3c(CN(C)C)c(O)ccc3nc2-1 + Cc1[nH]c2ccc(F)cc2c1-c1nc2c3cccnc3c3ncccc3c2[nH]1,IC50,second compound 0.0316 µM,153 nM
same,IC50,second compound 0.1 µM,130 nM
same,IC50,second compound 0.316 µM,144 nM
same,IC50,second compound 1 µM,164 nM
same,IC50,second compound 3.16 µM,132 nM
same,IC50,second compound 10 µM,192 nM
same,"viability, T/C","second compound 0.0316 µM, first compound 0.000999 µM",96.7%
same,"viability, T/C","second compound 0.0316 µM, first compound 0.00316 µM",94.6%
same,"viability, T/C","second compound 0.0316 µM, first compound 0.00999 µM",89.8%
same,"viability, T/C",[1],63.5%
same,"viability, T/C","second compound 0.0316 µM, first compound 0.0999 µM",60.8%
same,"viability, T/C",[2],39.6%
same,"viability, T/C","second compound 0.1 µM, first compound 0.000999 µM",91.8%
same,"viability, T/C","second compound 0.1 µM, first compound 0.00316 µM",99.7%
same,"viability, T/C","second compound 0.1 µM, first compound 0.00999 µM",90.2%
same,"viability, T/C",[3],67.7%
same,"viability, T/C","second compound 0.1 µM, first compound 0.0999 µM",56.6%
same,"viability, T/C",[4],39.7%
same,"viability, T/C","second compound 0.316 µM, first compound 0.000999 µM",102%
same,"viability, T/C","second compound 0.316 µM, first compound 0.00316 µM",93.6%
same,"viability, T/C","second compound 0.316 µM, first compound 0.00999 µM",97.6%
same,"viability, T/C",[5],72.6%
same,"viability, T/C","second compound 0.316 µM, first compound 0.0999 µM",54.9%
same,"viability, T/C",[6],42.8%
same,"viability, T/C","second compound 1 µM, first compound 0.000999 µM",103%
same,"viability, T/C","second compound 1 µM, first compound 0.00316 µM",89.1%
same,"viability, T/C","second compound 1 µM, first compound 0.00999 µM",92.8%
same,"viability, T/C",[7],73.9%
same,"viability, T/C","second compound 1 µM, first compound 0.0999 µM",60.5%
same,"viability, T/C",[8],36.6%
same,"viability, T/C","second compound 3.16 µM, first compound 0.000999 µM",97.8%
same,"viability, T/C","second compound 3.16 µM, first compound 0.00316 µM",95.7%
same,"viability, T/C","second compound 3.16 µM, first compound 0.00999 µM",88.8%
same,"viability, T/C",[9],90.8%
same,"viability, T/C","second compound 3.16 µM, first compound 0.0999 µM",53.4%
same,"viability, T/C",[10],39.2%
same,"viability, T/C","second compound 10 µM, first compound 0.000999 µM",105%
same,"viability, T/C","second compound 10 µM, first compound 0.00316 µM",86.2%
same,"viability, T/C","second compound 10 µM, first compound 0.00999 µM",89.4%
same,"viability, T/C",[11],73.7%
same,"viability, T/C","second compound 10 µM, first compound 0.0999 µM",62.6%
same,"viability, T/C",[12],40.4%
O=C(c1cc(Cc2n[nH]c(=O)c3ccccc23)ccc1F)N1CCN(C(=O)C2CC2)CC1 + Cc1cnc(CNC(=O)c2c(=O)c3ccc(N4CCCN(C)CC4)nc3n3c2sc2ccccc23)cn1,IC50,second compound 0.0316 µM,> 10000 nM
same,IC50,second compound 0.1 µM,> 10000 nM
same,IC50,second compound 0.316 µM,< 31.6 nM
same,IC50,second compound 1 µM,< 31.6 nM
same,IC50,second compound 3.16 µM,< 31.6 nM
same,IC50,second compound 10 µM,< 31.6 nM
same,"viability, T/C",[1],101%
same,"viability, T/C","second compound 0.0316 µM, first compound 0.1 µM",88.6%
same,"viability, T/C",[2],99.9%
same,"viability, T/C","second compound 0.0316 µM, first compound 1 µM",83.7%
same,"viability, T/C","second compound 0.0316 µM, first compound 3.16 µM",84.8%
same,"viability, T/C","second compound 0.0316 µM, first compound 10 µM",77.8%
same,"viability, T/C",[3],66%
same,"viability, T/C","second compound 0.1 µM, first compound 0.1 µM",80.9%
same,"viability, T/C",[4],62%
same,"viability, T/C","second compound 0.1 µM, first compound 1 µM",58.4%
same,"viability, T/C","second compound 0.1 µM, first compound 3.16 µM",68.7%
same,"viability, T/C","second compound 0.1 µM, first compound 10 µM",72.3%
same,"viability, T/C",[5],29.3%
same,"viability, T/C","second compound 0.316 µM, first compound 0.1 µM",31.1%
same,"viability, T/C",[6],26.4%
same,"viability, T/C","second compound 0.316 µM, first compound 1 µM",31.4%
same,"viability, T/C","second compound 0.316 µM, first compound 3.16 µM",34%
same,"viability, T/C","second compound 0.316 µM, first compound 10 µM",38.4%
same,"viability, T/C",[7],4.96%
same,"viability, T/C","second compound 1 µM, first compound 0.1 µM",4.81%
same,"viability, T/C",[8],4.45%
same,"viability, T/C","second compound 1 µM, first compound 1 µM",3.67%
same,"viability, T/C","second compound 1 µM, first compound 3.16 µM",5.47%
same,"viability, T/C","second compound 1 µM, first compound 10 µM",6.38%
same,"viability, T/C",[9],2.65%
same,"viability, T/C","second compound 3.16 µM, first compound 0.1 µM",2.92%
same,"viability, T/C",[10],2.93%
same,"viability, T/C","second compound 3.16 µM, first compound 1 µM",3.33%
same,"viability, T/C","second compound 3.16 µM, first compound 3.16 µM",2.59%
same,"viability, T/C","second compound 3.16 µM, first compound 10 µM",2.87%
same,"viability, T/C",[11],1.22%
same,"viability, T/C","second compound 10 µM, first compound 0.1 µM",2.2%
same,"viability, T/C",[12],2.36%
same,"viability, T/C","second compound 10 µM, first compound 1 µM",1.84%
same,"viability, T/C","second compound 10 µM, first compound 3.16 µM",2.2%
same,"viability, T/C","second compound 10 µM, first compound 10 µM",1.68%
